Source: publication PMC7997578, “Design, Synthesis, Dynamic Docking, Biochemical Characterization, and in Vivo Pharmacokinetics Studies of Novel Topoisomerase II Poisons with Promising Antiproliferative Activity” (Journal of Medicinal Chemistry, 2020)
Converted amounts (≈) assume the structure as drawn. Where two headings read alike, the source gives them in different places.

Tests used:
HeLa cells = assay: cell viability MTT assay, HeLa; format: cell-based, human; details: HeLa cervical cancer cells, mean ± SD of two experiments, read-out: HeLa antiproliferative activity IC50
Method: (§1) The antiproliferative activity of all compounds was evaluated in (i) DU145, an androgen-independent prostate cancer cell line; (ii) HeLa, a cervical cancer cell line; and (iii) A549, a lung adenocarcinoma cell line (Table 1). […] Undoubtedly, this preliminary cytotoxicity data will need further characterization, also in relation to the in vitro activity of these compounds.
(§2) Human cancer cell lines A549 (lung adenocarcinoma, ATCC CCL-185), DU-145 (androgen-independent prostate cancer, ATCC HTB-81), and HeLa (cervical carcinoma, ATCC CCL-2) were obtained from ATCC. Cells were routinely grown in minimal essential medium containing Eagle’s salts and L-glutamine supplemented with 10% heat-inactivated FBS in a humidified atmosphere of 5% CO2 at 37 °C. To assess the antiproliferative activity of the compounds, cells were seeded at a density of 2500 cells/well (HeLa) or 5000 cells/well (A549, DU-145) in 96-well plates, and cell viability was measured using the MTT assay as described previously.[39] Values are reported as the mean ± SD of two independent experiments.

human topoIIα = target: T1, human topoIIα (Homo sapiens, UniProt P11388); assay: topoII decatenation assay (Inspiralis); format: biochemical
T1 construct: purchased Inspiralis
T1 sequence (P11388 whole entry): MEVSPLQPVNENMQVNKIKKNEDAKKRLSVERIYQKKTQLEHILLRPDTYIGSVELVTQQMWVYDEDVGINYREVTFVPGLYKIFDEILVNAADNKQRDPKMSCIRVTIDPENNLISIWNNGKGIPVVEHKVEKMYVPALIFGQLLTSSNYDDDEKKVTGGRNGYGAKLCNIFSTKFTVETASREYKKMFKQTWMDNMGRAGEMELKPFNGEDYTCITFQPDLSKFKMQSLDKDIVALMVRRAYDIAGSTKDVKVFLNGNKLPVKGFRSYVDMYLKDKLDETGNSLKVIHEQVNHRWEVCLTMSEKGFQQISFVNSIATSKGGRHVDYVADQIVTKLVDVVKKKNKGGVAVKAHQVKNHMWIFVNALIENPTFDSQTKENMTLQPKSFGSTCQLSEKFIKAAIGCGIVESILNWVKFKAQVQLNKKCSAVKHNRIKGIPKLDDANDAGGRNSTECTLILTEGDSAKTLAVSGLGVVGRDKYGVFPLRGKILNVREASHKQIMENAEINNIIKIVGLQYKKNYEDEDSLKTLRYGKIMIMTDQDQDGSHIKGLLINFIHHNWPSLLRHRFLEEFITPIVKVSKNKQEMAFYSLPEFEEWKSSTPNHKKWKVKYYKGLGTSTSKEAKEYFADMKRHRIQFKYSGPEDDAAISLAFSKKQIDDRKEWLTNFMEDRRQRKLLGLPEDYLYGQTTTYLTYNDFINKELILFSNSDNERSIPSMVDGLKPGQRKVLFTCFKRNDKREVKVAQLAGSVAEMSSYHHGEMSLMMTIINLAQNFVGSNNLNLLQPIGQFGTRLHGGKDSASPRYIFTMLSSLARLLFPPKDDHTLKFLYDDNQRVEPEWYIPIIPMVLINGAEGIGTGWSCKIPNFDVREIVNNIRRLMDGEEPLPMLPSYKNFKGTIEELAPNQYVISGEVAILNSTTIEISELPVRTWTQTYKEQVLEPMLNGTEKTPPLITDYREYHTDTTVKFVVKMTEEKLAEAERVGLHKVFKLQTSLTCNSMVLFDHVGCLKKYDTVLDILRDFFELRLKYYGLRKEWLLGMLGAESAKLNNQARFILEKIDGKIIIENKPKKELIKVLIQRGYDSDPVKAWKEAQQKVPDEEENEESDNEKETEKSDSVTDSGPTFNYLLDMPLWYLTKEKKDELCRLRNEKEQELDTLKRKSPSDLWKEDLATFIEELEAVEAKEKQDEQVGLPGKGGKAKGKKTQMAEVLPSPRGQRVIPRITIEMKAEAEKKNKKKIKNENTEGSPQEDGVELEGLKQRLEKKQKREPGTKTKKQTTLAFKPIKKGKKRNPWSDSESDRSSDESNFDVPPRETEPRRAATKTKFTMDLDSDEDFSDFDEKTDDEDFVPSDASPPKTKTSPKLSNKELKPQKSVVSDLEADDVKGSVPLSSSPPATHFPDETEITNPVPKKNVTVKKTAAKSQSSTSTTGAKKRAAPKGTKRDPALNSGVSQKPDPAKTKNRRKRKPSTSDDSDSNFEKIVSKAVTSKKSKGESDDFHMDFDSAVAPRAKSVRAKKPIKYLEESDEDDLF
Method: We measured the inhibitor activity of our new compounds against human topoIIα, using a topoII decatenation assay (Table 1).
The activity of topoIIα was measured using a decatenation assay (Inspiralis) following the manufacturer’s instructions. Compounds were dissolved in DMSO and used at a concentration ranging from 200 to 1 μM. Final DMSO concentration in the assay was ≤1%. Reaction mixtures were incubated for 30 min at 37 °C and terminated with STEB buffer (40% (w/v) sucrose, 100 mM Tris-HCl, pH 8, 1 mM EDTA, 0.5 mg/mL bromophenol blue). Reaction products were resolved by electrophoresis in 1% agarose gels containing SYBR Safe DNA stain (Invitrogen), scanned, and quantified using the ChemiDoc system (BioRad). IC50 values were obtained with GraphPad Prism software (version 5.03) using the band intensities of the dose–response gels. Values are reported as the mean ± SD of two independent experiments.

DU145 cells = assay: cell viability MTT assay, DU145; format: cell-based, human; details: mean ± SD of two experiments, read-out: DU145 antiproliferative activity IC50
Method: as §1, §2

A549 cells = assay: cell viability MTT assay, A549; format: cell-based, human; details: mean ± SD of two experiments, read-out: A549 antiproliferative activity IC50
Method: as §1, §2

[1] = aqueous kinetic solubility; format: physicochemical; details: PBS, pH 7.4, PBS pH 7.4, target 250 µM, 2.5% DMSO, 25°C
Method: 1. In vitro m etabolic stabili ty
In vitro microsomial stability. 10mM DMSO stock solution of test compound was pre-incubated at 37 °C for 15min with mouse liver microsomes added 0.1M Tris-HCl buffer (pH 7.4). The final concentration was 4.6µM. After pre -incubation, the co-factors (NADPH, G6P, G6PDH and MgCl2 pre-dissolved in 0.1M Tris-HCl) were added to the incubation mixture and the incubation was continued at 37 °C for 1h. At each time point (0, 5, 15, 30, 60min), 30µL of incubation mixture was diluted with 200µL cold CH 3CN spiked with 200n M of internal standard, followed by centrifugation at 3500g for 15min. The supernatant was further diluted with H2O (1:1) for analysis. The concentration of test compound was quantified by LC/MS-MS on a Waters ACQUITY UPLC/M S TQD system consisting of a TQD (Triple Quadrupole Detector) Mass Spectrometer equipped with an Electrospray Ionization interface. The analyses were run on an ACQUITY UPLC BEH C18 (50x2.1mmID, particle size 1.7µm) with a VanGuard BEH C18 pre -column (5x2.1mmID, particle size 1.7µm) at 40°C, using 0.1% HCOOH in H 2O (A) and 0.1% HCOOH in CH 3CN (B) as mobile phase. Electrospray ionization (ESI) was app lied in positive mode . The percentage of test compound remaining at each time point relative to t=0 was calculated. The half -lives (t½) were determined by an one-phase decay equation using a non -linear regression of compound concentration versus time.
In vitro Plasma Stability. 10mM DMSO stock solution of test compound was diluted 50 -fold with DMSO-H2O (1:1) and incubated at 37 °C for 2 h with mouse plasma added 5% DMSO (pre-heated at 37 °C for 10 min). The final concentration was 2µM. At each time point (0, 5, 15, 30, 60, 120min), 50 µL of incubation mixture was diluted with 200µL cold CH3CN spiked with 200nM of internal standard, followed by centrifugation at 3500g for 20min. The supernatant was further diluted with H2O (1:1) for analysis. The concentration of test compound was quantified by LC/MS-MS on a Waters ACQUITY UPLC/MS TQD system consisting of a TQD (Triple Quadrupole Detector) Mass Spectrometer equipped with an Electrospray Ionization interface. The analyses were run on an ACQUITY UPLC BEH C18 (50x2.1mmID, particle size 1.7µm) with a VanGuard BEH C18 pre - column (5x2.1mmID, particle size 1.7µm) at 40°C, using 0.1% HCOOH in H2O (A) and 0.1% HCOOH in CH3CN (B) as mobile phase. Electrospray ionization (ESI) was applied in positive mode.
The response factors, calculated on the basis of the internal standard peak area, were plotted over time. When possible, response vs. time profiles were fitted with Prism (GraphPad Software, Inc., USA) to estimate compounds half-life in plasma.
2. Aqueous ki netic solu bili ty
The aqueous kinetic solubility was determined from a 10mM DMSO stock solution of test compound in Phosphate Buffered Saline (PBS) at pH 7.4. The study was performed by incubation of an aliquot of 10mM DMSO stock solution in PBS (pH 7.4) at a target concentration of 250µM resulting in a final concentration of 2.5% DMSO. The incubation was carried out under shaking at 25°C for 24h followed by centrifugation at 21.100g for 30min. The supernatant was analyzed by UPLC/MS for the quantification of dissolved compound by UV at a specific wavelength (215nm).
The analyses were performed on a Waters ACQUITY UPLC/MS SQD system consisting of a SQD (Single Quadrupole Detector) Mass Spectrometer equipped with Electrospray Ionization interface.
The analyses were run on an ACQUITY UPLC BEH C18 column (50x2.1mmID, particle size 1.7µm) with a VanGuard BEH C18 pre-column (5x2.1mmID, particle size 1.7µm), using 10mM NH4OAc in H2O at pH 5 adjusted with AcOH (A) and 10mM NH4OAc in MeCN-H2O (95:5) at pH 5 (B) as […]

[2] = human topoIIα decatenation assay, mean ± SD of two independent experiments, read-out: IC50
[3] = Homo sapiens, DU-145, DU145 prostate cancer cells
[4] = Homo sapiens, A549, A549 lung adenocarcinoma cells
[5] = topoIIα decatenation IC50 versus ARN16267

Structure (SMILES)	IC50 (HeLa cells) [µM]	IC50 (HeLa cells; Homo sapiens, HeLa) [µM]	IC50 (human topoIIα; [2]) [µM]	IC50 (DU145 cells; DU145 prostate cancer cells) [µM]	IC50 (DU145 cells; [3]) [µM]	IC50 (A549 cells; A549 lung adenocarcinoma cells) [µM]	IC50 (A549 cells; [4]) [µM]	solubility kinetic at 24 h [1] [µM]	fold increased activity compared to ARN16267 (human topoIIα; [5]) [fold]	IC50 (human topoIIα) [µM]	fold drop in activity compared to ARN16267 (human topoIIα; [5]) [fold]
CC(F)(F)c1cccc(NC(=O)c2c(O)n(-c3ccccc3)c(=S)n(-c3ccccc3)c2=O)c1 [3h, N-(3-(1,1-Difluoroethyl)phenyl)-6-hydroxy-4-oxo-1,3-diphenyl-2-thioxo-1,2,3,4-tetrahydropyrimidine-5-carboxamide]	2.5 ± 0.4	< 5	9.2 ± 0.2	2.7 ± 2.5	< 5	3 ± 1.1	< 5	6 (≈ 2.88 µg/mL)	–	–	–
COc1cc(/C=C/CNC(=O)c2c(O)n(-c3ccccc3)c(=S)n(-c3ccccc3)c2=O)cc(OC)c1O [compound 8, (E)-6-Hydroxy-N-(3-(4-hydroxy-3,5-dimethoxyphenyl)allyl)-4-oxo-1,3-diphenyl-2-thioxo-1,2,3,4-tetrahydropyrimidine-5-carboxamide]	–	9.3 ± 0.2	28 ± 4.4	–	9.8 ± 2.1	–	9.5 ± 1.5	–	–	–	–
CC(C)Oc1cccc(NC(=O)c2c(O)n(-c3ccccc3)c(=S)n(-c3ccccc3)c2=O)c1 [3b, 6-Hydroxy-N-(3-isopropoxyphenyl)-4-oxo-1,3-diphenyl-2-thioxo-1,2,3,4-tetrahydropyrimidine-5-carboxamide]	–	4.2 ± 0.3	9.7 ± 2.6	–	5.5 ± 0.1	–	3 ± 0.3	34 (≈ 16.1 µg/mL)	–	–	–
COc1cccc(/C=C/CNC(=O)c2c(O)n(-c3ccccc3)c(=S)n(-c3ccccc3)c2=O)c1 [5f, (E)-6-Hydroxy-N-(3-(3-methoxyphenyl)allyl)-4-oxo-1,3-diphenyl-2-thioxo-1,2,3,4-tetrahydropyrimidine-5-carboxamide]	–	5.5 ± 1.1	8.3 ± 2.3	–	5 ± 2.9	–	4.4 ± 0.6	–	2	–	–
COc1cc(CNC(=O)c2c(O)n(-c3ccccc3)c(=S)n(-c3ccccc3)c2=O)cc(OC)c1O [compound 6, 6-Hydroxy-N-(4-hydroxy-3,5-dimethoxybenzyl)-4-oxo-1,3-diphenyl-2-thioxo-1,2,3,4-tetrahydropyrimidine-5-carboxamide]	–	19.1 ± 4.8	108 ± 10.1	–	8.8 ± 0.3	–	14.7 ± 0.3	–	–	> 100	7
COc1cc(NC(=O)c2c(O)n(-c3ccccc3)c(=S)n(-c3ccccc3)c2=O)ccc1F [3j]	–	5.3 ± 1	22.5 ± 5.8	–	7.8 ± 0.6	–	4.6 ± 0.1	–	–	–	–
N#Cc1cccc(NC(=O)c2c(O)n(-c3ccccc3)c(=S)n(-c3ccccc3)c2=O)c1 [3c, N-(3-Cyanophenyl)-6-hydroxy-4-oxo-1,3-diphenyl-2-thioxo-1,2,3,4-tetrahydropyrimidine-5-carboxamide]	–	12.4 ± 1.3	14.4 ± 3.8	–	14.4 ± 4.1	–	16.9 ± 0.3	–	–	–	–
COc1cccc(CNC(=O)c2c(O)n(-c3ccccc3)c(=S)n(-c3ccccc3)c2=O)c1 [5d, 6-Hydroxy-N-(3-methoxybenzyl)-4-oxo-1,3-diphenyl-2-thioxo-1,2,3,4-tetrahydropyrimidine-5-carboxamide]	–	6.1 ± 1.1	22.5 ± 7.2	–	7.7 ± 0.1	–	4.8 ± 0.4	–	–	–	1.4
COc1cc(CCNC(=O)c2c(O)n(-c3ccccc3)c(=S)n(-c3ccccc3)c2=O)cc(OC)c1O [compound 7, 6-Hydroxy-N-(4-hydroxy-3,5-dimethoxyphenethyl)-4-oxo-1,3-diphenyl-2-thioxo-1,2,3,4-tetrahydropyrimidine-5-carboxamide]	–	13.3 ± 1.7	74.4 ± 13.6	–	13.9 ± 7.6	–	14.8 ± 1.4	–	–	–	–
O=C(Nc1cccc(F)c1)c1c(O)n(-c2ccccc2)c(=S)n(-c2ccccc2)c1=O [3e, N-(3-Fluorophenyl)-6-hydroxy-4-oxo-1,3-diphenyl-2-thioxo-1,2,3,4-tetrahydropyrimidine-5-carboxamide]	–	5.6 ± 0.5	15.1 ± 4.2	–	5.6 ± 0.6	–	4.1 ± 0.2	–	–	–	–
O=C(Nc1cccc([N+](=O)[O-])c1)c1c(O)n(-c2ccccc2)c(=S)n(-c2ccccc2)c1=O [3d, 6-Hydroxy-N-(3-nitrophenyl)-4-oxo-1,3-diphenyl-2-thioxo-1,2,3,4-tetrahydropyrimidine-5-carboxamide]	–	11.9 ± 2.6	10.2 ± 4.6	–	6.9 ± 0.3	–	18.5 ± 3.1	–	–	–	–
CCOc1cccc(NC(=O)c2c(O)n(-c3ccccc3)c(=S)n(-c3ccccc3)c2=O)c1 [3a, N-(3-Ethoxyphenyl)-6-hydroxy-4-oxo-1,3-diphenyl-2-thioxo-1,2,3,4-tetrahydropyrimidine-5-carboxamide]	–	5.2 ± 0.9	12.4 ± 3.7	–	5.7 ± 1.4	–	3.6 ± 0.4	–	–	–	–
COc1cccc(CCNC(=O)c2c(O)n(-c3ccccc3)c(=S)n(-c3ccccc3)c2=O)c1 [5e, 6-Hydroxy-N-(3-methoxyphenethyl)-4-oxo-1,3-diphenyl-2-thioxo-1,2,3,4-tetrahydropyrimidine-5-carboxamide]	3.4 ± 0.1	< 5	15.8 ± 3.4	3.3 ± 2.5	< 5	3.2 ± 1.2	< 5	122 (≈ 57.8 µg/mL)	–	–	–
